Source: US20160046618A1, “Cyclopropyl Fused Thiazin-2-Amine Compounds as Beta-Secretase Inhibitors and Methods of Use” (AMGEN INC., priority 2014, published 2016)

Columns and labels:
human recombinant BACE1 = human recombinant BACE1 (Homo sapiens (Human), UniProt P56817); assay: In vitro enzymatic BACE1 FRET assay; format: biochemical; details: read-out: IC50 IP (μM) BACE1 enzyme
Method in brief: (§1)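 Protease purified by Ni-NTA chromatography; start with FRET substrate (50 nM); incubate 1 h; quench with Tris to neutral pH; read fluorescence ex 488 / em 590 nm.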

Recombinant Cat D = Recombinant Cat D (Homo sapiens (Human), UniProt P07339); assay: In vitro enzymatic Cathepsin D (Cat D) FRET assay; format: biochemical; details: read-out: IC50 IP (μM) CatD
Recombinant Cat D, sequence (P07339 65-412): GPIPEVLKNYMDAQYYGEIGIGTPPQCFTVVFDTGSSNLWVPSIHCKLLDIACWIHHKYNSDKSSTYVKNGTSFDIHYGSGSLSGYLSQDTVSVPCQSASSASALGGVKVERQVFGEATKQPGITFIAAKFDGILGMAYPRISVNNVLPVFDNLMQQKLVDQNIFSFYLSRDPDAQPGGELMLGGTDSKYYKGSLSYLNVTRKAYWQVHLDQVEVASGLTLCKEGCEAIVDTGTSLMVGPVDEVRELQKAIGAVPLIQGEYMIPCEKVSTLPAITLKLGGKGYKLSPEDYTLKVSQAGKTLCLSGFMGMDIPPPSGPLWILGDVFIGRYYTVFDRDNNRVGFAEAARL
Method in brief: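 Cleavage of a 20 nM FRET peptide by CHO-derived Cat D over 1 h at pH 3.5 (citrate buffer with CHAPS, 10% DMSO final). Endpoint fluorescence is read after Tris quench.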

human recombinant BACE2 = human recombinant BACE2 (Homo sapiens (Human), UniProt Q9Y5Z0); assay: In vitro enzymatic BACE2 FRET assay; format: biochemical; details: read-out: IC50 IP (μM) BACE2 enzyme
human recombinant BACE2, sequence (Q9Y5Z0 63-518): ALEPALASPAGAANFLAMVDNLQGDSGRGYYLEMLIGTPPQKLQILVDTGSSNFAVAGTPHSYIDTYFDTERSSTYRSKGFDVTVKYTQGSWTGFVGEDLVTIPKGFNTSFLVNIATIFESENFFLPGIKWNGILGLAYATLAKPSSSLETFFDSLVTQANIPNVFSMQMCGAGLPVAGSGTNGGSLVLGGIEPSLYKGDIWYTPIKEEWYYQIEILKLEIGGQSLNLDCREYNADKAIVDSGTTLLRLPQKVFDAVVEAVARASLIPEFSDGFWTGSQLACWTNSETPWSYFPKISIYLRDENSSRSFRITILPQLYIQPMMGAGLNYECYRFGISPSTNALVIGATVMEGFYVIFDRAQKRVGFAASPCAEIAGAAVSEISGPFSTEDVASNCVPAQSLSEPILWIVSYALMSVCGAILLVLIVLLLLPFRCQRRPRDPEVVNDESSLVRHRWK
Method in brief: as §1

[1] = system: Aβ40 in conditioned medium of cells stably expressing Amyloid Precursor Protein (APP); assay: In vitro BACE-1 cell-based assay (Aβ40 sandwich ELISA); details: read-out: IC50 IP (μM) BACE1 cell
Method in brief: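 APP-expressing cells treated 24 h at 37 °C with compound in 10-point dose response (top 100 μM or 10 μM, 0.1% DMSO final). Secreted Aβ40 in conditioned medium quantified by sandwich ELISA (pAb40 capture, biotinylated 6E10 detection, time-resolved europium fluorescence); IC50 from percent inhibition versus concentration.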

human recombinant BACE1, sequence (P56817 46-501): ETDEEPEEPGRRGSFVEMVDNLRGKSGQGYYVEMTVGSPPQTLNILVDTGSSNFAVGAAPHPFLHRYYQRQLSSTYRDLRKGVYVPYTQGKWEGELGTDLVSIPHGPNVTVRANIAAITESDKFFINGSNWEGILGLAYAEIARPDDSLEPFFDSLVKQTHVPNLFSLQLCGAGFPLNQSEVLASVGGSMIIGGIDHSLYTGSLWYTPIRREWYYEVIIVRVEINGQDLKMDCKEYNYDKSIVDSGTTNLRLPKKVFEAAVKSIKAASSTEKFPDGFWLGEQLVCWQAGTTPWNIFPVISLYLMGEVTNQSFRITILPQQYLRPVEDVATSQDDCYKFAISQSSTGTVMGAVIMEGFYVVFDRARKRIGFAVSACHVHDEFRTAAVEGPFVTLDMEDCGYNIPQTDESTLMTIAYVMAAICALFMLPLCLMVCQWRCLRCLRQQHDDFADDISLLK

IC50 (human recombinant BACE1) [µM]	IC50 (Recombinant Cat D) [µM]	IC50 (human recombinant BACE2) [µM]	IC50 [1] [µM]	SMILES
0.00339	600	0.737	0.034	COC[C@]12C[C@H]1[C@@](C)(c1cc(NC(=O)c3ccc(OCC(F)(F)C(F)F)cn3)cc(F)c1F)N=C(N)S2 [Example 732, N-(3-((1S,5S,6S)-3-amino-1-(methoxymethyl)-5-methyl-2-thia-4-azabicyclo[4.1.0]hept-3-en-5-yl)-4,5-difluorophenyl)-5-(2,2,3,3-tetrafluoropropoxy)-2-pyridinecarboxamide]
0.00638	1520	0.0642	0.014	C#CCOc1cnc2c(Nc3cc(F)c(F)c([C@@]4(C)N=C(N)S[C@@]5(COC)C[C@H]54)c3)nccc2c1 [Example 733, N-(3-((1S,5S,6S)-3-amino-1-(methoxymethyl)-5-methyl-2-thia-4-azabicyclo[4.1.0]hept-3-en-5-yl)-4,5-difluorophenyl)-3-(2-propyn-1-yloxy)-1,7-naphthyridin-8-amine]
0.00173	2110	0.188	0.017	COC[C@]12C[C@H]1[C@@](C)(c1cc(NC(=O)c3cnc(OCC(F)(F)C(F)F)cn3)cc(F)c1F)N=C(N)S2 [Example 734, N-(3-((1S,5S,6S)-3-amino-1-(methoxymethyl)-5-methyl-2-thia-4-azabicyclo[4.1.0]hept-3-en-5-yl)-4,5-difluorophenyl)-5-(2,2,3,3-tetrafluoropropoxy)-2-pyrazinecarboxamide]
0.0412	1650	0.978	1.76	COC[C@]12C[C@H]1[C@@](C)(c1cc(Nc3nccc4cc(OCc5ncc(Cl)s5)cnc34)cc(F)c1F)N=C(N)S2 [Example 735, N-(3-((1S,5S,6S)-3-amino-1-(methoxymethyl)-5-methyl-2-thia-4-azabicyclo[4.1.0]hept-3-en-5-yl)-4,5-difluorophenyl)-3-((5-chloro-1,3-thiazol-2-yl)methoxy)-1,7-naphthyridin-8-amine]
0.0317	151	0.765	1.07	COC[C@]12C[C@H]1[C@@](C)(c1cc(Nc3nccc4cc(OCc5nc(Br)cs5)cnc34)cc(F)c1F)N=C(N)S2 [Example 736, N-(3-((1S,5S,6S)-3-amino-1-(methoxymethyl)-5-methyl-2-thia-4-azabicyclo[4.1.0]hept-3-en-5-yl)-4,5-difluorophenyl)-3-((4-bromo-1,3-thiazol-2-yl)methoxy)-1,7-naphthyridin-8-amine]
0.0325	1500	0.693	0.274	COC[C@]12C[C@H]1[C@@](C)(c1cc(Nc3nccc4cc(OCc5nccs5)cnc34)cc(F)c1F)N=C(N)S2 [Example 737, N-(3-((1S,5S,6S)-3-amino-1-(methoxymethyl)-5-methyl-2-thia-4-azabicyclo[4.1.0]hept-3-en-5-yl)-4,5-difluorophenyl)-3-(1,3-thiazol-2-ylmethoxy)-1,7-naphthyridin-8-amine]
0.00421	1460	0.158	0.0169	COC[C@]12C[C@H]1[C@@](C)(c1cc(NC(=O)c3cnc(OCC(C)(F)F)cn3)cc(F)c1F)N=C(N)S2 [Example 739, N-(3-((1S,5S,6S)-3-amino-1-(methoxymethyl)-5-methyl-2-thia-4-azabicyclo[4.1.0]hept-3-en-5-yl)-4,5-difluorophenyl)-5-(2,2-difluoropropoxy)-2-pyrazinecarboxamide]
0.0055	927	0.209	0.0194	COC[C@]12C[C@H]1[C@@](C)(c1cc(NC(=O)c3cnc(OCCCF)cn3)cc(F)c1F)N=C(N)S2 [Example 740, N-(3-((1S,5S,6S)-3-amino-1-(methoxymethyl)-5-methyl-2-thia-4-azabicyclo[4.1.0]hept-3-en-5-yl)-4,5-difluorophenyl)-5-(3-fluoropropoxy)-2-pyrazinecarboxamide]
0.0269	94.4	0.658	1.14	COC[C@]12C[C@H]1[C@@](C)(c1cc(Nc3nccc4cc(OCC#CC(F)(F)F)cnc34)cc(F)c1F)N=C(N)S2 [Example 741, N-(3-((1S,5S,6S)-3-amino-1-(methoxymethyl)-5-methyl-2-thia-4-azabicyclo[4.1.0]hept-3-en-5-yl)-4,5-difluorophenyl)-3-((4,4,4-trifluoro-2-butyn-1-yl)oxy)-1,7-naphthyridin-8-amine]
0.000719	846	< 0.00203	0.0149	C[C@]1(c2cc(NC(=O)c3ccc(Cl)cn3)cc(F)c2F)N=C(N)S[C@@]2(S(C)(=O)=O)C[C@H]21 [Example 742, N-(3-((1R,5S,6S)-3-amino-5-methyl-1-(methylsulfonyl)-2-thia-4-azabicyclo[4.1.0]hept-3-en-5-yl)-4,5-difluorophenyl)-5-chloro-2-pyridinecarboxamide]
0.000395	> 133	0.00543	0.00971	C#CCOc1ccc(C(=O)Nc2cc(F)c(F)c([C@@]3(C)N=C(N)S[C@@]4(S(C)(=O)=O)C[C@H]43)c2)nc1 [Example 743, N-(3-((1R,5S,6S)-3-amino-5-methyl-1-(methylsulfonyl)-2-thia-4-azabicyclo[4.1.0]hept-3-en-5-yl)-4,5-difluorophenyl)-5-(2-propyn-1-yloxy)-2-pyridinecarboxamide]
0.00029	46.5	0.0183	0.000872	C#CCOc1cnc(C(=O)Nc2cc(F)c(F)c([C@@]3(C)N=C(N)S[C@@]4(S(C)(=O)=O)C[C@H]43)c2)cn1 [Example 744, N-(3-((1R,5S,6S)-3-amino-5-methyl-1-(methylsulfonyl)-2-thia-4-azabicyclo[4.1.0]hept-3-en-5-yl)-4,5-difluorophenyl)-5-(2-propyn-1-yloxy)-2-pyrazinecarboxamide]
0.000898	972	0.0257	0.0175	C[C@]1(c2cc(NC(=O)c3ccc(OCc4ncco4)cn3)cc(F)c2F)N=C(N)S[C@@]2(S(C)(=O)=O)C[C@H]21 [Example 745, N-(3-((1R,5S,6S)-3-amino-5-methyl-1-(methylsulfonyl)-2-thia-4-azabicyclo[4.1.0]hept-3-en-5-yl)-4,5-difluorophenyl)-5-(1,3-oxazol-2-ylmethoxy)-2-pyridinecarboxamide]
0.000628	880	0.00522	0.00356	C[C@]1(c2cc(NC(=O)c3cnc(OCc4ncco4)cn3)cc(F)c2F)N=C(N)S[C@@]2(S(C)(=O)=O)C[C@H]21 [Example 746, N-(3-((1R,5S,6S)-3-amino-5-methyl-1-(methylsulfonyl)-2-thia-4-azabicyclo[4.1.0]hept-3-en-5-yl)-4,5-difluorophenyl)-5-(1,3-oxazol-2-ylmethoxy)-2-pyrazinecarboxamide]
0.00242	1190	0.0115	0.0123	C[C@]1(c2cc(Nc3nccc4nc(OCc5ncco5)cnc34)cc(F)c2F)N=C(N)S[C@@]2(S(C)(=O)=O)C[C@H]21 [Example 747, (1R,5S,6S)-5-(2,3-difluoro-5-((2-(oxazol-2-ylmethoxy)pyrido[3,4-b]pyrazin-5-yl)amino)phenyl)-5-methyl-1-(methylsulfonyl)-2-thia-4-azabicyclo[4.1.0]hept-3-en-3-amine]
0.00807	129	0.00284	0.597	C[C@]1(c2cc(NC(=O)c3ccc(Cl)cn3)cc(F)c2F)N=C(N)S[C@@H]2[C@H]1C2(F)F [Example 748, N-(3-((1R,5S,6R)-3-amino-7,7-difluoro-5-methyl-2-thia-4-azabicyclo[4.1.0]hept-3-en-5-yl)-4,5-difluorophenyl)-5-chloro-2-pyridinecarboxamide]
0.000319	101	0.00979	0.00121	C#CCOc1cnc(C(=O)Nc2ccc(F)c([C@@]3(C)N=C(N)S[C@]4(CO)[C@H]3C4(F)F)c2)cn1 [Example 749, N-(3-((1S,5S,6R)-3-amino-7,7-difluoro-1-(hydroxymethyl)-5-methyl-2-thia-4-azabicyclo[4.1.0]hept-3-en-5-yl)-4-fluorophenyl)-5-(2-propyn-1-yloxy)-2-pyrazinecarboxamide]
0.0019	246	0.0404	0.00301	C[C@]1(c2cc(Nc3ncnc4cc(OCc5ncco5)cnc34)ccc2F)N=C(N)S[C@]2(CO)[C@H]1C2(F)F [Example 750, ((1S,5S,6R)-3-amino-7,7-difluoro-5-(2-fluoro-5-((7-(1,3-oxazol-2-ylmethoxy)pyrido[3,2-d]pyrimidin-4-yl)amino)phenyl)-5-methyl-2-thia-4-azabicyclo[4.1.0]hept-3-en-1-yl)methanol]
0.00203	292	0.255	0.0338	C[C@]1(c2cc(NC(=O)c3ccc(OCC(F)(F)C(F)F)cn3)ccc2F)N=C(N)S[C@]2(CO)[C@H]1C2(F)F [Example 751, N-(3-((1S,5S,6R)-3-amino-7,7-difluoro-1-(hydroxymethyl)-5-methyl-2-thia-4-azabicyclo[4.1.0]hept-3-en-5-yl)-4-fluorophenyl)-5-(2,2,3,3-tetrafluoropropoxy)-2-pyridinecarboxamide]
